Peptide text beside a SMILES is read from it.

This is an account of results in article PMC5365662, “A Short Double-Stapled Peptide Inhibits Respiratory Syncytial Virus Entry and Spreading” (Antimicrobial Agents and Chemotherapy, 2017).

The conditions of this data set: all solvents tested.

For `CC[C@H](C)[C@H](NC(=O)[C@H](Cc1ccccc1)NC(=O)[C@H](C)NC(=O)[C@H](CC(C)C)NC(=O)[C@H](CO)NC(=O)[C@H](CCC(N)=O)NC(=O)[C@H](CC(N)=O)NC(=O)[C@@H](NC(=O)[C@H](CCCCN)NC(=O)[C@H](CCC(=O)O)NC(=O)[C@H](CC(N)=O)NC(=O)[C@@H](NC(=O)[C@H](CCC(N)=O)NC(=O)[C@H](CO)NC(=O)[C@@H](NC(=O)[C@H](CCC(=O)O)NC(C)=O)[C@@H](C)CC)C(C)C)[C@@H](C)CC)C(=O)N[C@@H](CCCNC(=N)N)C(N)=O` [Peptide 2] (Ac-EISQVNEKINQSLAFIR-NH2), the solubility entry is on record as “insoluble in all solvents tested”.
